Laboratory results: patent US11472803B2, “7-substituted 1-aryl-naphthyridine-3-carboxylic acid amides and use thereof” (Bayer Aktiengesellschaft, priority 2016, dated 2022)
pEC50: −log10 of the molar value.

How the values were obtained:
[1] = molecular target: T1, human M2 receptor (Homo sapiens, UniProt P08172); assay: Functional M2-GIRK1/4 activation test: allosteric potency (EC50) and efficiency at EC20 acetylcholine; format: cell-based; settings: CHO-DUKX-M2-GIRK cells; for pEC50: voltage-sensitive dye, acetylcholine at EC20, in some cases mean of two or more determinations; for Emax: boosting of the acetylcholine effect at EC20 acetylcholine concentration
T1 construct: expressed in transfected cells; host or cells: CHO-DUKX (CHO-DUKX-M2-GIRK)
T1 sequence (P08172 1-466): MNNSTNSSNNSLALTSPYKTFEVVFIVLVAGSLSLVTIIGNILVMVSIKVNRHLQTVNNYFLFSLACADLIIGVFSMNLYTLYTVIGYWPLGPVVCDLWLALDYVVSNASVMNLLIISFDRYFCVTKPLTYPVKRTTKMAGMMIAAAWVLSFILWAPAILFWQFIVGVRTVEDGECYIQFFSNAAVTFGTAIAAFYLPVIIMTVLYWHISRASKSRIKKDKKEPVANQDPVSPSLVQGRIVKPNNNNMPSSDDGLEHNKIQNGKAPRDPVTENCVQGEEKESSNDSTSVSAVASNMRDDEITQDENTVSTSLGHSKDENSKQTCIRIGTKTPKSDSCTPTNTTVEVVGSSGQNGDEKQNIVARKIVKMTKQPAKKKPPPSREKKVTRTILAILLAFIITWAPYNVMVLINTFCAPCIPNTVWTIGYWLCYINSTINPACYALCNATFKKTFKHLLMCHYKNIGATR
How it was run: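 Positive allosteric modulation measured as boosting of an EC20 acetylcholine response: hyperpolarization via GIRK1/4 in CHO-DUKX-M2-GIRK cells, monitored by membrane-potential dye fluorescence over 60 s after agonist, compound preadded. Hill-function fit gives EC50 and efficiency.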

[2] = molecular target: T1, human M2 receptor; assay: Functional M2-GIRK1/4 activation test: positive cooperativity (α factor), shift of acetylcholine dose-response curve; format: cell-based; settings: Allosteric EC50 shift of acetylcholine 8-point dose-response curve; CHO-DUKX-M2-GIRK cells; α>1 = positive cooperativity
How it was run: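 CHO-DUKX cells stably expressing human M2 and GIRK1/4, loaded with voltage-sensitive dye at room temperature; hyperpolarization followed by fluorescence. Each test-substance concentration, added first, combined with an 8-point acetylcholine dose-response; shift of the acetylcholine curve analysed by allosteric EC50 shift model to give cooperativity factor α.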

| SMILES | pEC50 [1] | Emax [1] [%] | Cooperativity (alpha factor) [2] |
| --- | --- | --- | --- |
| O=C(NC(C1CC1)C(F)(F)C(F)(F)F)c1cn(-c2c(F)cc(F)cc2F)c2nc(N3CC(CO)(CO)C3)c(F)cc2c1=O (single isomer, unassigned) [Example 205, 7-[3,3-bis(hydroxymethyl)azetidin-1-yl]-N-[1-cyclopropyl-2,2,3,3,3-pentafluoropropyl]-6-fluoro-4-oxo-1-(2,4,6-trifluorophenyl)-1,4-dihydro-1,8-naphthyridine-3-carboxamide] | 8.51 | 100 | 25 |
| CC(C)(NC(=O)c1cn(-c2c(F)cc(F)cc2F)c2nc(N3CC(CO)(CO)C3)c(F)cc2c1=O)C(F)(F)C(F)(F)F [Example 166, 7-[3,3-Bis(hydroxymethyl)azetidin-1-yl]-6-fluoro-4-oxo-N-(3,3,4,4,4-pentafluoro-2-methyl-butan-2-yl)-1-(2,4,6-trifluorophenyl)-1,4-dihydro-1,8-naphthyridine-3-carboxamide] | 8.36 | 100 | 31 |
| CC1(O)CN(c2nc3c(cc2F)c(=O)c(C(=O)N[C@@H](C2CC2)C(F)(F)F)cn3-c2c(F)cc(F)cc2F)C1 [Example 53, N-[(1S)-1-Cyclopropyl-2,2,2-trifluoroethyl]-6-fluoro-7-(3-hydroxy-3-methylazetidin-1-yl)-4-oxo-1-(2,4,6-trifluorophenyl)-1,4-dihydro-1,8-naphthyridine-3-carboxamide] | 7.80 | 100 | 30 |
| CC(C)(NC(=O)c1cn(-c2c(F)cc(F)cc2F)c2nc(N3C[C@@H](O)[C@H](O)C3)c(Br)cc2c1=O)C(F)(F)F [Example 159, 6-Bromo-7-[(3R,4R)-3,4-dihydroxypyrrolidin-1-yl]-4-oxo-N-(1,1,1-trifluoro-2-methylpropan-2-yl)-1-(2,4,6-trifluorophenyl)-1,4-dihydro-1,8-naphthyridine-3-carboxamide] | 8.15 | 100 | 45 |
| C[C@H](NC(=O)c1cn(-c2c(F)cc(F)cc2F)c2nc(N3C[C@@H](O)[C@H](O)C3)c(F)cc2c1=O)C(F)(F)F [Example 18, 7-[(3R,4R)-3,4-dihydroxypyrrolidin-1-yl]-6-fluoro-4-oxo-1-(2,4,6-trifluorophenyl)-N-[(2S)-1,1,1-trifluoropropan-2-yl]-1,4-dihydro-1,8-naphthyridine-3-carboxamide] | 7.69 | 99 | 43 |

The next lines start with the values.

| pEC50 [1] | Emax [1] [%] | Cooperativity (alpha factor) [2] | SMILES |
| --- | --- | --- | --- |
| 8.24 | 87 | 20 | CC(NC(=O)c1cn(-c2c(F)cc(F)cc2F)c2nc(N3CCC(O)(CO)CC3)c(F)cc2c1=O)C(F)(F)C(F)(F)F (single isomer, unassigned) [Example 186, 6-Fluoro-7-[4-hydroxy-4-(hydroxymethyl)piperidin-1-yl]-4-oxo-N-[3,3,4,4,4-pentafluorobutan-2-yl]-1-(2,4,6-trifluorophenyl)-1,4-dihydro-1,8-naphthyridine-3-carboxamide] |
| 7.95 | 100 | 86 | O=C(NC(C(F)(F)F)C(F)(F)F)c1cn(-c2ncc(F)cc2F)c2nc(N3C[C@@H](O)[C@H](O)C3)c(F)cc2c1=O [Example 145, 1-(3,5-Difluoropyridin-2-yl)-7-[(3R,4R)-3,4-dihydroxypyrrolidin-1-yl]-6-fluoro-N-(1,1,1,3,3,3-hexafluoropropan-2-yl)-4-oxo-1,4-dihydro-1,8-naphthyridine-3-carboxamide] |
| 8.06 | 100 | 27 | CC(NC(=O)c1cn(-c2c(F)cc(F)cc2F)c2nc(N3CCC(O)C(O)C3)c(F)cc2c1=O)C(F)(F)C(F)(F)F (single isomer, unassigned) [Example 182, 7-(3,4-Dihydroxypiperidin-1-yl)-6-fluoro-4-oxo-N-(3,3,4,4,4-pentafluorobutan-2-yl)-1-(2,4,6-trifluorophenyl)-1,4-dihydro-1,8-naphthyridine-3-carboxamide] |
| 8.22 | 100 | 38 | O=C(N[C@@H](C1CC1)C(F)(F)F)c1cn(-c2c(F)cc(F)cc2F)c2nc(N3C[C@@H](O)[C@H](O)C3)c(Cl)cc2c1=O [Example 37, 6-chloro-N-[(1S)-1-cyclopropyl-2,2,2-trifluoroethyl]-7-[(3R,4R)-3,4-dihydroxypyrrolidin-1-yl]-4-oxo-1-(2,4,6-trifluorophenyl)-1,4-dihydro-1,8-naphthyridine-3-carboxamide] |
